This is an account of results in ChEMBL document CHEMBL1932956, “Combination of two chromophores: synthesis and PDT application of porphyrin-pentamethinium conjugate” (Bioorg Med Chem Lett, 2012).

As a reminder, the pIC50 is −log10 of the IC50, conventionally taken in molar units.

In one test the test system is UB900518. Description: Antitumor activity against human UB900518 cells xenografted in mouse assessed as tumor regression at 5 mg/kg followed by photo irradiation measured after 72 hrs. In kind it is functional, organism-based. On the set-up: dose 5 mg/kg. For orientation: Xenograft models place foreign cells or tissue in a host animal.
Test [1] relates to HL-60. Description: Induction of apoptosis in human HL60 cells assessed as DNA fragmentation measured after 6 hrs following photo irradiation by trypan blue assay. It is filed as functional, cell-based.
Test [2] has as its system HL-60. Kind of test: Induction of apoptosis in human HL60 cells assessed as cell death measured after 24 hrs following photo irradiation by trypan blue assay. In kind it is functional, cell-based.
In test [3] the test system is HL-60. Description: Cytotoxicity against human HL60 cells assessed as cell viability. It is filed as functional, cell-based.

pIC50: −log10 of the molar value. Calls of active or inactive are those of the source. No cut-off for these calls is given here.

Regarding `CN(C)/C=C/C(=C\C=[N+](C)C)c1c2nc(c(C(/C=C/N(C)C)=C/C=[N+](C)C)c3ccc([nH]3)c(C(/C=C/N(C)C)=C/C=[N+](C)C)c3nc(c(C(/C=C/N(C)C)=C/C=[N+](C)C)c4ccc1[nH]4)C=C3)C=C2`, the outcome in the test with UB900518, with HL-60 [1] and with HL-60 [2] was Active. The pIC50 in the test on HL-60 [3] is 5.52.

As for `O=[N+]([O-])c1ccc(-[n+]2ccc(-c3c4nc(c(-c5cc[n+](-c6ccc([N+](=O)[O-])cc6[N+](=O)[O-])cc5)c5ccc([nH]5)c(-c5cc[n+](-c6ccc([N+](=O)[O-])cc6[N+](=O)[O-])cc5)c5nc(c(-c6cc[n+](-c7ccc([N+](=O)[O-])cc7[N+](=O)[O-])cc6)c6ccc3[nH]6)C=C5)C=C4)cc2)c([N+](=O)[O-])c1`, the outcome in the test with HL-60 [1] and in the test on HL-60 [2] was Active. The pIC50 with HL-60 [3] was 5.47.
